The results in this text go back to PMC5829162, “Rational Design, Synthesis and Biological Evaluation of Pyrimidine-4,6-diamine derivatives as Type-II inhibitors of FLT3 Selective Against c-KIT” (Scientific Reports, 2018).

Molecules are shown by their SMILES. “And” between values parts separate entries of the source, which are not always exact repeats. Identical values can stand only once.

Data set [1] has as its target T1, FLT3D835Y (Homo sapiens, UniProt P36888, D835Y).
T1 construct: the biochemical assay only contains the kinase domain with a single, D835Y point mutation
T1 sequence (P36888 610-943 D835Y limits assumed): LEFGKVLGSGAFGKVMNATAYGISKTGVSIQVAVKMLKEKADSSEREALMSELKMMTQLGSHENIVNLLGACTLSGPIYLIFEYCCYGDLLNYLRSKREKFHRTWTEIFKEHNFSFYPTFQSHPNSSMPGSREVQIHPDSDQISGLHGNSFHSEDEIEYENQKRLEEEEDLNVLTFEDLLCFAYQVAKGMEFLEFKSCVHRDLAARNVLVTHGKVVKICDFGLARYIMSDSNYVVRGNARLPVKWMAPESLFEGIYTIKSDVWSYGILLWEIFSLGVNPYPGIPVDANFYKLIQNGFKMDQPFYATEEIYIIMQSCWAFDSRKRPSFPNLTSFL
Put plainly: Biochemical kinase selectivity assay, FLT3 D835Y. To be noted: in vitro kinase assay; read-out: FLT3D835Y IC50 (nM) ± SD. Here is the method:
Kinase activity was measured in a microfluidics assay that monitors the separation of a phosphorylated product from substrate[31],[32]. The assay was run using a 12-sipper chip on a Caliper EZ Reader II (PerkinElmer®, Walthman, USA) with separation buffer (100 mM HEPES, 10 mM EDTA, 0.015% Brij-35, 0.1% CR-3 [PerkinElmer®, Walthman, USA]). In 96-well polypropylene plates (Greiner, Frickenhausen, Germany) compound stocks (20 mM in DMSO) were diluted into kinase buffer (50 mM HEPES, 0.075% Brij-35, 0.1% Tween 20, 2 mM DTT, 10 mM MgCl2, and 0.02% NaN3) in 12-point ½log dilutions (2 mM–6.32 nM). After, 1 μL was transferred into a 384-well polypropylene assay plate (Greiner, Frickenhausen, Germany). […] Percent inhibition was measured for each well comparing starting peptide to phosphorylated product peaks relative to the baseline. […] IC50 values were generated in duplicate and error was calculated from the standard deviation between values.
S10. Biochemical Inhibition Assay:1,2 Kinase activity was measured in a microfluidics assay that monitors the separation of a phosphorylated product from substrate. The assay was run using a 12-sipper chip on a Caliper EZ Reader II (PerkinElmer®, Walthman, USA) with separation buffer (100 mM HEPES, 10 mM EDTA, 0.015% Brij-35, 0.1% CR-3 [PerkinElmer®, Walthman, USA]). […]

Data set [2] addresses Aurora B (Homo sapiens, UniProt Q96GD4). Put plainly: Biochemical kinase selectivity assay, Aurora B.
Data set [3] deals with Ba/F3 FLT3-ITD. The data set is described as follows: Cell proliferation (CellTiter-Glo, 48 h), Ba/F3 FLT3-ITD. It counts as cell-based. The source says: (§1) Stable BaF3 populations expressing activated FLT3 were generated by retroviral spinfection with the appropriate mutated plasmid followed by selection and growth factor withdrawal as previously described. The BaF3 cell line was originally obtained from the laboratory of Charles Sawyers and has not been authenticated. MV411 and Molm14 cells were obtained from the laboratory of Scott Kogan and authenticated by Promega STR analysis in June 2013. All cell lines were mycoplasma-free. Cells were incubated with compounds for 48 hours and proliferation was assessed using CellTiter-Glo (Promega; Madison, WI) according to the manufacturer’s recommendation on a SpectraMax M3 microplate reader using SpectraMax Software (Molecular Devices; Sunnyvale, CA). All cell viability data shown is reflective of experiments performed a minimum of three times. […]
(§2) S13. Cell Cultures: Stable BaF3 populations expressing activated FLT3 were generated by retroviral spinfection with the appropriate mutated plasmid followed by selection and growth factor withdrawal as previously described .4 The BaF3 cell line was originally obtained from the laboratory of Charles Sawyers and has not been authenticated. MV411 and Molm14 cells were obtained from the laboratory of Scott Kogan and authenticated by Promega STR analysis in June
(§3) 2013. All cell lines were mycoplasma -free. Cells were incubated with compounds for 48 hours and proliferation was assessed using CellTiter -Glo (Promega; Madison, WI) according to the manufacturer’s recommendation on a SpectraMax M3 microplate reader using SpectraMax Software (Molecular Devices; Sunnyvale, CA). All cell viability data shown is reflective of experiments performed a minimum of three times.
In general terms: Cellular ATP, detected with luciferase, serves as a proxy for viable cell number.

In data set [4] the test system is Molm14 par. Put plainly: Cell proliferation (CellTiter-Glo, 48 h), Molm14 par. Format: cell-based. Particulars: Homo sapiens, MOLM-14.
From the text: as §1, §2, §3

Data set [5] relates to Molm14^F691L. The data set is described as follows: Cell proliferation (CellTiter-Glo, 48 h), Molm14 F691L. It counts as cell-based. Particulars: for GI50: Homo sapiens, MOLM-14, Molm14^F691L, 48 hours.
From the text: as §1, §2, §3

Aurora B, sequence (Q96GD4 whole entry): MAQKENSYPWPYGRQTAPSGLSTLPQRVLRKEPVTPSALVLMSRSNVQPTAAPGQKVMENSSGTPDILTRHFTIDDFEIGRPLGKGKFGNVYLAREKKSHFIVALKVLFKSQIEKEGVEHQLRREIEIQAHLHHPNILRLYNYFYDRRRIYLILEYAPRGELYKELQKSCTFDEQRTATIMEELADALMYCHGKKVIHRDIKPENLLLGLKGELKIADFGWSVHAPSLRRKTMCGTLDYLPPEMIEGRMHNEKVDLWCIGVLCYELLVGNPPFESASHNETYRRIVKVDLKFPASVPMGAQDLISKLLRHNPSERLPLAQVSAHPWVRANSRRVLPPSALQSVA

For orientation: IC50 means the concentration that gives 50% inhibition. By inhibition is commonly meant the share of the control response that was lost under treatment. The GI50 is the concentration at which growth is held to half of that of the control. A word on the melting point: it is the temperature of the solid-liquid transition. The molecule `CC(C)(C)c1cc(NC(=O)Cc2ccc(Nc3cc(Nc4ccc(S(C)(=O)=O)cc4)ncn3)cc2)no1` [13k, 2-(4-(6-(4-(Methylsulfonyl)phenylamino)pyrimidin-4-ylamino)phenyl)-N-(5-tert-butylisoxazol-3-yl)acetamide] displayed a melting point of 168 to 170 °C. Moreover, the IC50 in data set [1] came to 13700 ± 234 nM. Moreover, in data set [2], the inhibition at 20 µM is 71.9%. Halving of growth in data set [3] (GI50) required 40.5 nM. The molecule further came in with a GI50 in data set [4] of 19.8 nM. Also, in data set [5], halving of growth (GI50) required 2140 nM.

Turning to `Cn1nc(C(C)(C)C)cc1NC(=O)Cc1ccc(Nc2cc(Nc3ccc(S(C)(=O)=O)cc3)ncn2)cc1` [13a, 2-(4-(6-(4-(Methylsulfonyl)phenylamino)pyrimidin-4-ylamino)phenyl)-N-(3-tert-butyl-1-methyl-1H-pyrazol-5-yl)acetamide], the melting point was 134 to 136 °C. The IC50 in data set [1] was 72.5 nM and 72 nM. Also, in data set [2], the inhibition at 20 µM amounted to 79.8%. In data set [3], this molecule returned a GI50 of 131 nM. Also, in data set [4], it took 24.4 nM to inhibit growth by half (GI50). It took 1340 nM to inhibit growth in data set [5] by half (GI50). Also, in data set [5] (gatekeeper mutation, relative to the parental FLT3-ITD cells), the “fold reduction in cellular activity against Molm14^F691L” value was ~ 10 fold.
